Test systems include DLD-1 colon; IGROV1 ovarian; CAKI-1 renal; KM20L2 colon; SF-295 CNS; DMS 114 small cell lung; ACHN renal; OVCAR-8 ovarian; EKVX NSCLC; SNB-78 CNS; TK-10 renal; DMS 273 small cell lung.
What all share (test): DTP human tumour cell line panel, 48 h

Results on three molecules are retold here after PubChem BioAssay (NCI).

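These data come from cells grown in 96-well plates and exposed to compound for 48 hours at five concentrations. The concentration for full growth arrest is given as TGI.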

What is called TGI is the concentration at which net growth stops. A higher TGI goes with lower sensitivity of the cells. Turning to `O=C1NC2OC(CO)C(O)C(O1)C2O` (stereo unspecified), the total growth inhibition concentration (TGI) in the test with DLD-1 colon, in the test with IGROV1 ovarian, in the test on CAKI-1 renal, with KM20L2 colon, in the test with SF-295 CNS and with DMS 114 small cell lung was over 100 µM throughout. Moreover, the TGI in the test with ACHN renal, in the test on OVCAR-8 ovarian, with EKVX NSCLC, in the test on SNB-78 CNS, with TK-10 renal and in the test with DMS 273 small cell lung was over 100 µM throughout.
`CC(C)(C)C1CCC2(CC1)c1[nH]c3ccccc3c1C1(CCC(C(C)(C)C)CC1)c1[nH]c3ccccc3c12` (stereo unspecified): the TGI was over 100 µM in the test with DLD-1 colon; over 100 µM in the test on IGROV1 ovarian; over 100 µM with CAKI-1 renal; over 100 µM in the test with KM20L2 colon; over 100 µM in the test with SF-295 CNS; 57.3 µM in the test with DMS 114 small cell lung. Besides, the TGI in the test with ACHN renal, with OVCAR-8 ovarian, in the test with EKVX NSCLC, with SNB-78 CNS, with TK-10 renal and with DMS 273 small cell lung was over 100 µM in each case.
On to `COC(=O)C1CC2(c3ccccc3)C(=O)c3ccccc3N2O1` (stereo unspecified), for which the TGI in the test on DLD-1 colon, in the test on IGROV1 ovarian, in the test with CAKI-1 renal, in the test on KM20L2 colon, in the test on SF-295 CNS and with DMS 114 small cell lung was over 100 µM in each case. In addition, the TGI with ACHN renal, in the test with OVCAR-8 ovarian, with EKVX NSCLC, in the test with SNB-78 CNS, with TK-10 renal and in the test with DMS 273 small cell lung was over 100 µM throughout.
